The data set is described as follows: First normal stress difference of glycerin phases (AR-G2 rheometer). In kind it is physicochemical. On the procedure: The first normal stress difference of several glycerin phases (“Phase”) was measured prior to emulsification. A TA Instruments AR-G2 Rheometer was used to perform viscosity measurements for each of the phases A-E and a 100% glycerin phase using a 2 degree cone and plate geometry and a 52 micron gap. Measurements were taken at a shear stress of 100 Pa and 25° C. (77° F.).

Consider `OCC(O)CO` [Glycerin (100%), Glycerin], for which the “First Normal Stress Difference (N1 = 2 × Je × η^2 × γ^2, Pa)” value (glycerin phase prior to emulsification, shear stress of 100 Pa and 25° C., 2 degree cone and plate, 52 micron gap) was found to be 0 Pa. Further, the extensional viscosity entry (inferred from first normal stress difference) is “no extensional viscosity”.
